Here are results for five compounds from publication PMC7931226 (Pharmacology Research & Perspectives, 2021).

Molecules are shown by their SMILES.

The nature of data set [1]: Elacridar plasma and brain exposure, constant infusion in rats. Type of data set: in vivo, Sprague Dawley rats. Conditions: rat; for concentration at 4 h: Sprague Dawley, intravenous.
A further data set has as its system Caco-2 cells. The settings on record: range of substrates, well documented (ref not given); cited from earlier work.
Data set [2] is described as follows: Rat plasma protein binding. The data set is classed as in vitro ADME.
A further data set concerns MDCK-BCRP cells. The settings on record: range of substrates, well documented (ref not given); cited from earlier work.
Another data set can be described thus: Tolerability in rats. The data set is classed as in vivo.
For data set [3], the system named is P-gp and Bcrp (rat, blood-brain barrier). The data set can be described thus: In vivo efflux ratio. Set-up: species or system Sprague Dawley rats. Conditions: Sprague Dawley, intravenous, with elacridar 8.9 mg/hr/kg, 4.5-hour constant infusion.
The next data set has as its system BCRP. Conditions: BCRP knockout; cited from earlier work.
For data set [4], the target named is T1, Bcrp in the gut and biliary compartments (Rattus norvegicus, UniProt Q80W57).
T1 sequence (Q80W57 1-657): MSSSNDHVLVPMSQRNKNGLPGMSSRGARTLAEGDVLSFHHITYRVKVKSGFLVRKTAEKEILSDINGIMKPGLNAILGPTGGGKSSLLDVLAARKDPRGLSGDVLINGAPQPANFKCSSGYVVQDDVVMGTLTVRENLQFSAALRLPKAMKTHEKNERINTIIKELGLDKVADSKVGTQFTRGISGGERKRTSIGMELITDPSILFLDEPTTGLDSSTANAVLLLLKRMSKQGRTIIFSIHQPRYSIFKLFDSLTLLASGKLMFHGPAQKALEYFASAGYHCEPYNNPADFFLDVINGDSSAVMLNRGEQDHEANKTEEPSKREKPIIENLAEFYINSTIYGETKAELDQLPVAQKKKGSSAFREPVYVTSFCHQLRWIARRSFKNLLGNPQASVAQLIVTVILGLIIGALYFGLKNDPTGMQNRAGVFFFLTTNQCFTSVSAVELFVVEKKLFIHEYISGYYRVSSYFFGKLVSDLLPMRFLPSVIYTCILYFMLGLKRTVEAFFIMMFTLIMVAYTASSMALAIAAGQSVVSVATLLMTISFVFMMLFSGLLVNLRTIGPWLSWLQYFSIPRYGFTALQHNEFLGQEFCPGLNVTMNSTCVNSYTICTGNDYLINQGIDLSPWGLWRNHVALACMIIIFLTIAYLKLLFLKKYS
The data set can be described thus: Oral PK of BCRP substrates with constant infusion of elacridar. Type of data set: in vivo. Conditions: oral substrate with constant infusion of elacridar.

The next data set deals with rat P-gp at the BBB. The data set can be described thus: In vivo efflux ratio. Set-up: species or system Sprague Dawley rats. Conditions: constant infusion, inhibition of P-gp at the BBB.
A further data set has as its system P-gp. The settings on record: ref 26 (Smith et al, 1998); cited from earlier work.
Data set [5] in a line: Valspodar plasma and brain exposure, constant infusion or IV bolus in rats. Type of data set: in vivo, Sprague Dawley rats. Conditions: rat; for concentration at 4 h: Sprague Dawley, plasma, intravenous.
Setting [6] is: constant infusion, based upon 3x the half-life.

As for `COc1cc2c(cc1OC)CN(CCc1ccc(NC(=O)c3cccc4c(=O)c5cccc(OC)c5[nH]c34)cc1)CC2` [elacridar, 9,10‐dihydro‐5‐methoxy‐9‐oxo‐N‐[4‐[2‐(1,2,3,4‐tetrahydro‐6,7‐dimethoxy‐2‐isoquinolinyl)ethyl]phenyl]‐4‐acridine‐carboxamide], the concentration at 4 h in [1] (brain, 8.9 mg/hr/kg, total drug in brain, elacridar 8.9 mg/hr/kg constant infusion) is over 45000 ng/g; in [1] (plasma, 8.9 mg/hr/kg, Elacridar (total plasma), elacridar 8.9 mg/hr/kg, 4.5-hour constant infusion, mean), over 2000 ng/mL; in [1] (plasma, 8.9 mg/hr/kg, steady state free plasma, elacridar 8.9 mg/hr/kg constant infusion (maximum)) it was 35 to 70 nM; in [1] (plasma, free plasma exposure, range over doses, 0.009 to 8.9 mg/hr/kg constant infusion, 1.5% rat plasma free fraction) it was 0.025 to 49 ng/mL; in data set [1] (plasma, total plasma exposure (mean), range over doses, 0.009 to 8.9 mg/hr/kg constant infusion over 4.5 hours), 1.6 to 3270 ng/mL. The “time to steady state in plasma” value in data set [1] (setting [6]) was at most 2.5 h. In addition, the results for the IC50 in the data set on Caco-2 cells and with MDCK-BCRP cells were 600 nM and 300 nM, respectively. The “free in rat plasma (free fraction)” value in data set [2] (well known (ref 27), confirmed in-house) turned out to be 1.5%. The side effects entry in the data set “Tolerability in rats” (any study conditions up to 8-hour duration) is reported as “no negative side effects were observed”.
In the case of `COc1ccc(Cl)cc1C(=O)NCCc1ccc(S(=O)(=O)NC(=O)NC2CCCCC2)cc1` [glyburide], the efflux ratio at 4 h in [3] worked out at 5.4. In the data set on BCRP, the “increase in placental tissue concentration” value is listed as 2.5 fold.
As to `O=C(O)c1cc(/N=N/c2ccc(S(=O)(=O)Nc3ccccn3)cc2)ccc1O` [sulfasalazine], the “increase in liver concentrations” value in data set [4] (8 hours post-dose) stood at 4 fold. Also, the half-life entry in data set [4] (up to 8 hours post-dose) is “significant increase”.
`CC[C@@]1(O)C(=O)OCc2c1cc1n(c2=O)Cc2cc3c(CN(C)C)c(O)ccc3nc2-1` [topotecan]: the “clearance (calculated t1/2 and liver concentrations)” value in [4] is given as “not impacted”.
As to `C/C=C/C[C@@H](C)C(=O)[C@H]1C(=O)N[C@@H](C(C)C)C(=O)N(C)CC(=O)N(C)[C@@H](CC(C)C)C(=O)N[C@@H](C(C)C)C(=O)N(C)[C@@H](CC(C)C)C(=O)N[C@@H](C)C(=O)N[C@H](C)C(=O)N(C)[C@@H](CC(C)C)C(=O)N(C)[C@@H](CC(C)C)C(=O)N(C)[C@@H](C(C)C)C(=O)N1C` [valspodar], in the data set on rat P-gp at the BBB, the “minimal (lowest) efficacious dose” value came out at 0.9 mg/h/kg. In addition, the “decrease in in vitro efficacy from serum binding” value with P-gp is listed as 23 fold. In data set [2] (mean), this compound showed a rat plasma binding of 92%. In addition, the concentration at 4 h was 2140 nM in data set [5] (8 mg/hr/kg, free plasma exposure, maximum soluble dose 8 mg/hr/kg constant infusion) and 32 to 2590 ng/mL in data set [5] (free plasma exposure (mean), range over doses, 0.09 to 8 mg/hr/kg constant infusion over 4.5 hours, rat plasma binding = 92%). In addition, in data set [5] (setting [6]), the “time to steady state in plasma” value is at most 2.5 h. Further, the side effects result in the data set “Tolerability in rats” (IV bolus doses at 10 mg/kg or higher and repeat doses of 5 mg/kg or higher with less than 2 h between doses) is “lethargy and increased urination”; in the data set “Tolerability in rats” (constant infusion 0.9 mg/hr/kg and 2.7 mg/hr/kg up to 8 hours), “No side effects were observed”; in the data set “Tolerability in rats” (constant infusion, highest dose 8 mg/hr/kg), “some instances were observed”.

The IC50 is the concentration that inhibits the measured activity by half. The efflux ratio is the permeability from basolateral to apical divided by that in the opposite direction, in the common usage.
